The target in experiment [1] is T1, full length recombinant Pim-1 protein (Homo sapiens, UniProt P11309).
T1 construct: by full length recombinant Pim-1, Pim-2, or Pim-3 protein; hexahistidine tag followed by a thrombin cleavage site (N); made in house; host or cells: Sf9 (baculovirus) or E. coli (pET28)
Description: Pim-1 enzyme assay (HTRF, phosphorylation of biotinylated-BAD (S112) peptide). Type of experiment: biochemical. The conditions noted are these: enzyme assay, Pim-1; read-out: Pim_1_IC50. Summed up:
(§1)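 HTRF readout (europium anti-pBAD S112 antibody, streptavidin-APC) of biotin-BAD peptide phosphorylation by recombinant full-length Pim-1 or Pim-2, buffer 60 mM Hepes pH 7.0, 2 mM DTT, 0.05% BSA. Enzymes were His6-tagged, from baculovirus/Sf9 or E. coli.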

The target of experiment [2] is T2, full length recombinant Pim-3 protein (Homo sapiens, UniProt Q86V86).
T2 construct: by full length recombinant Pim-1, Pim-2, or Pim-3 protein; purchased Millipore (UK)
Description: Pim-3 enzyme assay (HTRF, phosphorylation of biotinylated-BAD (S112) peptide). Type of experiment: biochemical. The conditions noted are these: read-out: Pim3 IC50. The essentials: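 HTRF read-out, streptavidin-APC plus Eu-labelled anti-phospho-BAD (S112) antibody, measures BAD peptide phosphorylation by full-length recombinant Pim-3. Buffer: 60 mM Hepes pH 7.0, 2 mM DTT, 0.05% BSA; EDTA (3 mM) stop. Percent of control per well, IC50 by 4-parameter logistic fit.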
A general note: In TR-FRET formats the signal depends on donor and acceptor labels being close together.

The target in experiment [3] is T3, full length recombinant Pim-2 protein (Homo sapiens, UniProt Q9P1W9).
T3 construct: by full length recombinant Pim-1, Pim-2, or Pim-3 protein; hexahistidine tag followed by a thrombin cleavage site (N); made in house; host or cells: Sf9 (baculovirus) or E. coli (pET28)
T3 sequence (Q9P1W9 whole entry): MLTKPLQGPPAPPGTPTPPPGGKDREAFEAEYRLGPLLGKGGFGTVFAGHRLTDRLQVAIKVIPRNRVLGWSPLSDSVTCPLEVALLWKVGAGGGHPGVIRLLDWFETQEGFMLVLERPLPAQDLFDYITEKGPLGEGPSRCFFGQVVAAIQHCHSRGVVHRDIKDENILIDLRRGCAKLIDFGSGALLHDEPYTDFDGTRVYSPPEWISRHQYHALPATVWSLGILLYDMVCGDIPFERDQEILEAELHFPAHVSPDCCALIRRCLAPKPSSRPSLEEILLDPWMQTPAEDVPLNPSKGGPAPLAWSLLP
Description: Pim-2 enzyme assay (HTRF, phosphorylation of biotinylated-BAD (S112) peptide). The conditions noted are these: enzyme assay, Pim-2; read-out: Pim2_IC50. Type of experiment: biochemical. Summed up: as §1

Experiment [4] addresses T4, Pim-1 stably transfected into the U2OS human osteogenic sarcoma line (Homo sapiens, UniProt P11309).
T4 construct: expressed in transfected cells; host or cells: U2OS human osteogenic sarcoma line
Description: Pim cell assay, phospho-BAD normalized against total BAD, U2OS stably transfected with Pim-1. The conditions noted are these: read-out: Pim1_Cell_IC50. It counts as cell-based. The essentials: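 Read-out is phospho-BAD relative to total BAD, by MSD electrochemiluminescence on lysates, expressed as % phosphoprotein = (2×phospho)/(phospho+total)×100. Engineered U2OS lines carrying stably transfected Pim-1 or Pim-2 received 10-point compound dilutions at 0.3% final DMSO after overnight culture at 37 °C; DMSO-only wells served as high control.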

[5] abbreviates: U2OS cells stably transfected with Pim-1, phospho-BAD, high dose […].

The structures appear in SMILES notation. Where two headings read alike, the source gives them in different places.

T1 sequence (P11309 whole entry): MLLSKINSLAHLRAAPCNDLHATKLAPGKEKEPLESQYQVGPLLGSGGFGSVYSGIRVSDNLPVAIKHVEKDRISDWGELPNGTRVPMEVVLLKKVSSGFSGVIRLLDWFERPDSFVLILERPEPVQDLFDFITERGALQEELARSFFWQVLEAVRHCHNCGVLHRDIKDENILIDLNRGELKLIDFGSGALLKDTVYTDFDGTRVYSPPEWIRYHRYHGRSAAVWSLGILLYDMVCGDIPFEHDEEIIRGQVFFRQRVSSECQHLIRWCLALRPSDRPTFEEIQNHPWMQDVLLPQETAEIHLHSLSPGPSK
T4 sequence (P11309 whole entry): as above

Take `COc1nc2ccccc2cc1-c1ccc2[nH]nc(-c3cncc(N4CCC(N)CC4)n3)c2c1` [Example 2, 1-(6-(5-(2-methoxyquinolin-3-yl)-1H-indazol-3-yl)pyrazin-2-yl)piperidin-4-amine]: the IC50 in experiment [1] was determined as 28 nM; in experiment [2] it was 61 nM; in experiment [3], 769 nM; in experiment [4] (setting [5]), 2630 nM.
On to `NC1CCN(c2cncc(-c3c[nH]c4ccc(-c5c(F)cccc5F)nc34)c2)CC1` [Example 32, 1-(5-(5-(2,6-difluorophenyl)-1H-pyrrolo[3,2-b]pyridin-3-yl)pyridin-3-yl)piperidin-4-amine], for which the IC50 in experiment [1] is 19 nM; in experiment [2], 67 nM; in experiment [3] it was 586 nM; in experiment [4] it was 907 nM.
Turning to `NC1CCN(c2cncc(-c3n[nH]c4ccc(-c5cc6ccccc6nc5O)cc34)n2)CC1` [Example 54, 3-(3-(6-(4-amino-1-piperidinyl)-2-pyrazinyl)-1H-indazol-5-yl)-2-quinolinol], the IC50 in experiment [1] worked out at 7 nM; in experiment [2] it was 4 nM; in experiment [3], 183 nM; in experiment [4] (setting [5]) it was 3660 nM.
Regarding `NC1CCN(c2cncc(-c3n[nH]c4ccc(N5CCOCC5)cc34)n2)CC1` [Example 89, 1-(6-(5-(4-morpholinyl)-1H-indazol-3-yl)-2-pyrazinyl)-4-piperidinamine], the IC50 came out at 28 nM in experiment [1], 49 nM in experiment [2], 303 nM in experiment [3] and 868 nM in experiment [4] (setting [5]).
For `Nc1cc(-c2ccc3[nH]nc(-c4cncc(N5CCC(N)CC5)n4)c3c2)ccc1N1CCOCC1` [Example 105, 1-(6-(5-(3-amino-4-(4-morpholinyl)phenyl)-1H-indazol-3-yl)-2-pyrazinyl)-4-piperidinamine], the IC50 in experiment [1] was found to be 2 nM; in experiment [2] it was 5 nM; in experiment [3], 43 nM; in experiment [4] (setting [5]), 484 nM.
For `CN(C)c1cccc(-c2ccc3[nH]nc(-c4cncc(N5CCC(N)CC5)n4)c3c2)c1` [Example 108, 1-(6-(5-(3-(dimethylamino)phenyl)-1H-indazol-3-yl)-2-pyrazinyl)-4-piperidinamine], the IC50 came out at 9 nM in experiment [1], 6 nM in experiment [2], 153 nM in experiment [3] and 866 nM in experiment [4] (setting [5]).
The like results for `NC1CCN(c2cncc(-c3n[nH]c4ccc(-c5ccnc6cc(F)ccc56)cc34)n2)CC1` [Example 110, 1-(6-(5-(7-fluoro-4-quinolinyl)-1H-indazol-3-yl)-2-pyrazinyl)-4-piperidinamine] were, in that order, 8 nM, 23 nM, 151 nM and 776 nM.
The like results for `Nc1nccc(N2CCc3ccc(-c4ccc5[nH]nc(-c6cncc(N7CCC(N)CC7)n6)c5c4)cc32)n1` [Example 113, 4-(6-(3-(6-(4-amino-1-piperidinyl)-2-pyrazinyl)-1H-indazol-5-yl)-2,3-dihydro-1H-indol-1-yl)-2-pyrimidinamine] were, in that order, 17 nM, 33 nM, 549 nM and greater than 15800 nM.
For `Fc1ncc(Cl)cc1-c1ccc2[nH]nc(-c3cncc(O[C@@H]4CCCNC4)n3)c2c1` [Example 117, 5-(5-chloro-2-fluoro-3-pyridinyl)-3-(6-((3R)-3-piperidinyloxy)-2-pyrazinyl)-1H-indazole], in that order: 18 nM, 5 nM, 66 nM and 761 nM.
As for `CC(C)Oc1cncc(-c2ccc3[nH]nc(-c4cncc(O[C@@H]5CCCNC5)n4)c3c2)c1` [Example 120, 5-(5-(1-methylethoxy)-3-pyridinyl)-3-(6-((3R)-3-piperidinyloxy)-2-pyrazinyl)-1H-indazole], the IC50 in experiment [1] is 3 nM; in experiment [2], 8 nM; in experiment [3], 98 nM; in experiment [4] (setting [5]), 145 nM.
Consider `Fc1cccnc1-c1ccc2[nH]nc(-c3cncc(O[C@@H]4CCCNC4)n3)c2c1` [Example 124, 5-(3-fluoro-2-pyridinyl)-3-(6-((3R)-3-piperidinyloxy)-2-pyrazinyl)-1H-indazole], for which the IC50 in experiment [1] turned out to be 11 nM; in experiment [2] it was 11 nM; in experiment [3], 58 nM; in experiment [4] (setting [5]), 402 nM.
On to `c1ccc(-c2ccc3[nH]nc(-c4cncc(O[C@@H]5CCCNC5)n4)c3c2)cc1` [Example 134, 5-phenyl-3-(6-((3R)-3-piperidinyloxy)-2-pyrazinyl)-1H-indazole], for which the IC50 was 7 nM in experiment [1], 14 nM in experiment [2], 37 nM in experiment [3] and 316 nM in experiment [4] (setting [5]).
The like results for `COc1cccc(-c2ccc3[nH]nc(-c4cncc(O[C@@H]5CCCNC5)n4)c3c2)n1` [Example 137, 5-(6-methoxy-2-pyridinyl)-3-(6((3R)-3-piperidinyloxy)-2-pyrazinyl)-1H-indazole] were, in that order, 8 nM, 6 nM, 63 nM and 585 nM.
As to `CC(C)Oc1cccc(-c2ccc3[nH]nc(-c4cncc(O[C@@H]5CCCNC5)n4)c3c2)c1` [Example 146, 5-(3-(1-methylethoxy)phenyl)-3-(6-((3R)-3-piperidinyloxy)-2-pyrazinyl)-1H-indazole], the IC50 worked out at 7 nM in experiment [1], 31 nM in experiment [2], 84 nM in experiment [3] and 996 nM in experiment [4] (setting [5]).
Take `C(=C\C1CC1)/c1ccc2[nH]nc(-c3cncc(O[C@@H]4CCCNC4)n3)c2c1` [Example 147, 5-((E)-2-cyclopropylethenyl)-3-(6-((3R)-3-piperidinyloxy)-2-pyrazinyl)-1H-indazole]: the IC50 in experiment [1] was 7 nM; in experiment [2], 13 nM; in experiment [3] it was 105 nM; in experiment [4] (setting [5]), 724 nM.
The like results for `C1=C(c2ccc3[nH]nc(-c4cncc(O[C@@H]5CCCNC5)n4)c3c2)CCOC1` [Example 148, 5-(3,6-dihydro-2H-pyran-4-yl)-3-(6-((3R)-3-piperidinyloxy)-2-pyrazinyl)-1H-indazole] were, in that order, 6 nM, 7 nM, 25 nM and 314 nM.
For `c1cnnc(-c2ccc3[nH]nc(-c4cncc(O[C@@H]5CCCNC5)n4)c3c2)c1` [Example 149, 3-(6-((3R)-3-piperidinyloxy)-2-pyrazinyl)-5-(3-pyridazinyl)-1H-indazole], in that order: 6 nM, 7 nM, 48 nM and 292 nM.
For `COc1nccc(-c2ccc3[nH]nc(-c4cncc(O[C@@H]5CCCNC5)n4)c3c2)n1` [Example 152, 5-(2-methoxy-4-pyrimidinyl)-3-(6-((3R)-3-piperidinyloxy)-2-pyrazinyl)-1H-indazole], in that order: 7 nM, 7 nM, 36 nM and 1060 nM.
As to `CC(C)Oc1nccc(-c2ccc3[nH]nc(-c4cncc(O[C@@H]5CCCNC5)n4)c3c2)n1` [Example 153, 5-(2-(1-methylethoxy)-4-pyrimidinyl)-3-(6-((3R)-3-piperidinyloxy)-2-pyrazinyl)-1H-indazole], the IC50 in experiment [1] was determined as 12 nM; in experiment [2], 27 nM; in experiment [3] it was 165 nM; in experiment [4] (setting [5]), 174 nM.

(Values after US9090593B2, “Bicyclic compounds as Pim inhibitors” (AMGEN INC., priority 2010, dated 2015).)
